Measured values reported in publication PMC5407767, “Characterization and expression analysis of Galnts in developing Strongylocentrotus purpuratus embryos” (PLoS ONE, 2017).

Target: SpGalNAc-T2 (Strongylocentrotus purpuratus, UniProt A0A7M7T5A5)
Assay: GalNAc transfer to peptide acceptors, radioactivity (dpm/3hr)
Assay type: biochemical
Settings: acceptor peptides EA2, MUC5AC, MUC5AC-3, MUC5AC-13, MUC5AC-3/-13, SpDelta, SpNotch, 37°C, donor not given

Sequence of SpGalNAc-T2 (A0A7M7T5A5 37-564): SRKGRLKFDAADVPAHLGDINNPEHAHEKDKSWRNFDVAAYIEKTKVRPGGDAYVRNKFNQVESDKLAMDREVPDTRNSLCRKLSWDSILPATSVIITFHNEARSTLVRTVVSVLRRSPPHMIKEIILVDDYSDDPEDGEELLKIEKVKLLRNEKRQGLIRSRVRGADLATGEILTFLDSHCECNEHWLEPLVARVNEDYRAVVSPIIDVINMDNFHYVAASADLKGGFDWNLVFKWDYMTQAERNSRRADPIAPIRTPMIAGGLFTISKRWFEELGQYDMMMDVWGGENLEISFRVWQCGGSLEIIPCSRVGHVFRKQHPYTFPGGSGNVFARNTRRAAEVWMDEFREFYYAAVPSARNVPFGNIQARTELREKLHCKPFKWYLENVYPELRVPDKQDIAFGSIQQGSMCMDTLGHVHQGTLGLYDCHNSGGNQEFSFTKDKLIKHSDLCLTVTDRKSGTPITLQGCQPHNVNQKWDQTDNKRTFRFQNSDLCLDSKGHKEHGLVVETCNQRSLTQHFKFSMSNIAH

## CC(=O)N[C@H]1[C@@H](OP(=O)(O)OP(=O)(O)OC[C@H]2O[C@@H](n3ccc(=O)[nH]c3=O)[C@H](O)[C@@H]2O)O[C@H](CO)[C@H](O)[C@@H]1O [UDP-GalNAc]
  GalNAc transfer to peptide acceptors, radioactivity (dpm/3hr): GalNAc-T activity was observed for SpGalNAc-T1, SpGalNAc-T2, SpGalNAc-T7, SpGalNAc-T7-1, and SpGalNAc-T7-2
